Reference: patent US6743423B1, “Use of adeno-associated viruses for decreasing the radiotherapy-induced or chemotherapy- induced resistance in cancer patients” (Deutsches Krebsforschungszentrum Stiftung des Offentlichen …, priority 1998, dated 2004)

Tests used:
Format in all cases: cell-based, human
NCI-H446 = assay: MTT proliferation assay, SCLC cell line NCI-H446 (chemotherapeutic agents with or without AAV-2 infection); conditions: for Sensitization factor (A/Ao)* 10^4 Ip.AAV/Cell: AAV-2 infection 10^4 per cell vs mock infection
Procedure: (§1) Small cell lung carcinoma cell lines (NCI-H69, NCI-H164, NCI-H209, and NCI-H446) (Cancer Res., 1980, 40, 3502-3507; Cancer Res., 1985, 45, 2913-2923) were cultured in RPMI-1640 medium (Eurobio, Raunheim, Germany). HeLa cells were cultured in DMEN (Eurobio, Raunheim, Germany). All growth media were supplemented with glutamine (Eurobio, 1%), antibiotics (penicillin and streptomycin) and 10% heat-inactivated fetal calf serum (PAA; Liz, Austria). The cultures were incubated at 37° C. in a damp atmosphere with 5% CO2 and tested for mycoplasma contaminations at regular intervals.
(§2) The adeno-associated virus type 2 (AAV-2) was replicated in HeLa cells using, adenovirus type 2 (Ad-2) as a helper. AAV was purified in a cesium-chloride gradient and titrated as described in J. Gen. Virol., 1994, 74, 2655-2662. The adenovirus type 2 inocula were clarified supernatants of Ad-2-infected HeLa cells.
(§3) The SCLC cells were suspended in PBS and incubated with purified AAV-2 in the indicated multiplicities of infection (MOI). […]
(§4) The proliferation of the SLCL cells after the infection with AAV-2 and/or treatment with chemotherapeutic agents was determined by the modified MTT test (J. Immunol. Methods, 1983, 56, 55-63). […] The precipitated proteins were pelleted by centrifugation (1000 rpm, 15 min), and 200 ul samples of the supernatant were measured to determine the optical density at 540 nm (OD540), OD690 being used as a reference and a Titertek Multiskan plus MKII densitometer being employed (Lab Systems, Finland).
(§5) The relative proliferation (A/Ao) was defined as the ratio of the absorption (A) measured in the supernatant of AAV-2-infected and/or pharmacon-treated cells, compared with the absorption measured for the supernatant of the mock-infected cells and untreated control cells (Ao). […]
(§6) The AAV-2-infected cells (MOI values as indicated) or mock-infected cells were placed in plates having 24 wells and treated with cisplatin. After six or eight days, the relative proliferation was determined. […]

NCI-H209 = assay: MTT proliferation assay, SCLC cell line NCI-H209 (chemotherapeutic agents with or without AAV-2 infection); conditions: for Sensitization factor (A/Ao)* 10^4 Ip.AAV/Cell: AAV-2 infection 10^4 per cell vs mock infection
Procedure: as §1, §2, §3, §4, §5, §6

NCI-H146 = assay: MTT proliferation assay, SCLC cell line NCI-H146 (chemotherapeutic agents with or without AAV-2 infection); conditions: for Sensitization factor (A/Ao)* 10^4 Ip.AAV/Cell: AAV-2 infection 10^4 per cell vs mock infection
NCI-H69 = assay: MTT proliferation assay, SCLC cell line NCI-H69 (chemotherapeutic agents with or without AAV-2 infection); conditions: AAV-2 infection 10^4 per cell vs mock infection
Procedure: as §1
The adeno-associated virus type 2 (AAV-2) was replicated in HeLa cells using, adenovirus type 2 (Ad-2) as a helper. […]
The proliferation of the SLCL cells after the infection with AAV-2 and/or treatment with chemotherapeutic agents was determined by the modified MTT test (J. Immunol. Methods, 1983, 56, 55-63). […] The precipitated proteins were pelleted by centrifugation (1000 rpm, 15 min), and 200 ul samples of the supernatant were measured to determine the optical density at 540 nm (OD540), OD690 being used as a reference and a Titertek Multiskan plus MKII densitometer being employed (Lab Systems, Finland). […]
as §6

[1] = cells treated only with cisplatin at IC50

## COc1cc([C@@H]2c3cc4c(cc3[C@@H](O[C@@H]3O[C@@H]5CO[C@@H](C)O[C@H]5[C@H](O)[C@H]3O)[C@H]3COC(=O)[C@H]23)OCO4)cc(OC)c1O [Etoposide, etoposide]
NCI-H446
  Sensitization factor (A/Ao)* 10^4 Ip.AAV/Cell: 3.00
NCI-H209
  Sensitization factor (A/Ao)* 10^4 Ip.AAV/Cell: 2.12
NCI-H146
  Resistance/susceptibility of the cell line to the agent: highly susceptible
  Sensitization factor (A/Ao)* 10^4 Ip.AAV/Cell: 1.38
NCI-H69
  Sensitization factor (A/Ao)* 10^4 Ip.AAV/Cell: 1.30

## N.N.[Cl][Pt][Cl] [Cisplatin, cisplatin]
NCI-H446
  Sensitization factor (A/Ao)* 10^4 Ip.AAV/Cell: 2.50
NCI-H446; [1]
  Relative proliferation (A/Ao): 0.59
NCI-H209
  Sensitization factor (A/Ao)* 10^4 Ip.AAV/Cell: 2.33
NCI-H209; [1]
  Relative proliferation (A/Ao): 0.5
NCI-H146
  Sensitization factor (A/Ao)* 10^4 Ip.AAV/Cell: 1.37
NCI-H69
  Sensitization factor (A/Ao)* 10^4 Ip.AAV/Cell: 1.43
